Measured values from the NIST ThermoML archive (doi:10.1021/je800635g).

Settings: Liquid, Falling or rolling sphere viscometry

Cc1ccc(C)cc1 [1,4-dimethylbenzene]
viscosity [mPa·s]
Settings | 313.15 K | 333.15 K | 353.15 K | 373.15 K | 393.15 K | 413.15 K | 433.15 K | 453.15 K | 473.15 K
100 kPa | 0.499 | 0.409 | 0.34 | 0.292 | – | – | – | – | –
800 kPa | 0.5029 | 0.412 | 0.346 | 0.297 | 0.254 | 0.221 | 0.192 | 0.168 | –
1600 kPa | 0.51 | 0.414 | 0.35 | 0.3 | 0.258 | 0.223 | 0.197 | 0.17 | 0.159
2400 kPa | 0.516 | 0.417 | 0.356 | 0.303 | 0.262 | 0.226 | 0.201 | 0.172 | 0.163
3200 kPa | 0.521 | 0.419 | 0.361 | 0.305 | 0.266 | 0.228 | 0.206 | 0.175 | 0.167

CC(=O)O [acetic acid]
viscosity [mPa·s]
Settings | 313.15 K | 333.15 K | 353.15 K | 373.15 K | 393.15 K | 413.15 K | 433.15 K | 453.15 K | 473.15 K
100 kPa | 0.903 | 0.713 | 0.574 | 0.471 | – | – | – | – | –
800 kPa | 0.91 | 0.72 | 0.582 | 0.478 | 0.394 | 0.333 | 0.281 | 0.244 | –
1600 kPa | 0.917 | 0.727 | 0.59 | 0.486 | 0.402 | 0.34 | 0.287 | 0.251 | 0.213
2400 kPa | 0.924 | 0.735 | 0.598 | 0.494 | 0.41 | 0.347 | 0.294 | 0.258 | 0.22
3200 kPa | 0.932 | 0.743 | 0.605 | 0.502 | 0.418 | 0.354 | 0.302 | 0.264 | 0.226

CCCCCCCCCC [decane]
Settings | viscosity [mPa·s]
313.15 K, 100 kPa | 0.7051
323.15 K, 100 kPa | 0.6356
333.15 K, 100 kPa | 0.5646
333.15 K, 800 kPa | 0.5732
333.15 K, 1600 kPa | 0.5714
333.15 K, 2400 kPa | 0.5756
333.15 K, 3200 kPa | 0.5792
343.15 K, 100 kPa | 0.5069
353.15 K, 100 kPa | 0.4514
363.15 K, 100 kPa | 0.4136
373.15 K, 100 kPa | 0.3729
373.15 K, 800 kPa | 0.3773
373.15 K, 1600 kPa | 0.3818
373.15 K, 2400 kPa | 0.3851
373.15 K, 3200 kPa | 0.3906
393.15 K, 1600 kPa | 0.3216
413.15 K, 1600 kPa | 0.279
433.15 K, 1600 kPa | 0.2328
453.15 K, 1600 kPa | 0.2072
473.15 K, 1600 kPa | 0.174

Cc1ccccc1 [toluene]
Settings | viscosity [mPa·s]
313.15 K, 100 kPa | 0.4651
323.15 K, 100 kPa | 0.4158
333.15 K, 100 kPa | 0.3758
333.15 K, 800 kPa | 0.3839
333.15 K, 1600 kPa | 0.3889
333.15 K, 2400 kPa | 0.3955
333.15 K, 3200 kPa | 0.4008
343.15 K, 100 kPa | 0.3428
353.15 K, 100 kPa | 0.3137
363.15 K, 100 kPa | 0.2901
373.15 K, 100 kPa | 0.268
373.15 K, 800 kPa | 0.2706
373.15 K, 1600 kPa | 0.2742
373.15 K, 2400 kPa | 0.278
373.15 K, 3200 kPa | 0.2822
393.15 K, 1600 kPa | 0.2397
413.15 K, 1600 kPa | 0.2058
433.15 K, 1600 kPa | 0.1769
453.15 K, 1600 kPa | 0.1517
473.15 K, 1600 kPa | 0.1353
